Assay: Inhibition of Mycobacterium tuberculosis glutamine synthetase

SMILES	IC50	IC50 (read-out: IC50) [µM]
Oc1ccc(-c2nc3ccc(Br)cn3c2NC2CCCC2)cc1	ND(Insoluble)	
Oc1ccccc1-c1nc2ccc(Br)cn2c1NC1CCCC1		> 50
O=C(O)c1cccc(-c2nc3ccc(Br)cn3c2NC2CCCC2)c1		0.38
COc1ccc(-c2nc3ccc(C(F)(F)F)cn3c2NC2CCCC2)cc1O		> 50
COc1ccc(-c2nc3ccc(Oc4ccccc4)cn3c2NC2CCCC2)cc1O		> 50
Brc1ccc2ncc(NC3CCCC3)n2c1		> 50
COc1cccc(-c2nc3ccc(Br)cn3c2NC2CCCC2)c1OC		> 50
O=[N+]([O-])c1ccc(-c2nc3ccc(Br)cn3c2NC2CCCC2)cc1O		> 50
COc1ccc(-c2nc3ccc(Cl)cn3c2NC2CCCC2)cc1O		11.2
COc1ccc(-c2nc3ccc(C)cn3c2NC2CCCC2)cc1O		> 50
OCc1cccc(-c2nc3ccc(Br)cn3c2NC2CCCC2)c1		13.2
COc1ccc(-c2nc3ccc(F)cn3c2NC2CCCC2)cc1O		> 50
COc1ccc(-c2nc3c(C)cc(Br)cn3c2NC2CCCC2)cc1O		12.7
COc1ccc(-c2nc3ccc(Cc4ccccc4)cn3c2NC2CCCC2)cc1O		> 50
COc1ccc(-c2nc3ccc(/C=C/c4ccccc4)cn3c2NC2CCCC2)cc1O		> 50
Oc1cccc(-c2nc3ccc(Br)cn3c2NC2CCCC2)c1Cl		> 50
Oc1cccc(-c2nc3ccc(Br)cn3c2NC2CCCC2)c1		> 50

SMILES	IC50	IC50 (read-out: IC50) [µM]
COc1ccc(-c2nc3ccc(CCc4ccccc4)cn3c2NC2CCCC2)cc1O		> 50
O=[N+]([O-])c1cccc(-c2nc3ccc(Br)cn3c2NC2CCCC2)c1		> 50
COc1ccc(-c2nc3ccc(-c4ccncc4)cn3c2NC2CCCC2)cc1O		> 50
COc1ccc(-c2nc3c(Br)cccn3c2NC2CCCC2)cc1O		21.3
COc1ccc(-c2nc3c(Br)cc(Br)cn3c2NC2CCCC2)cc1O		> 50
COc1ccc(-c2nc3ccc(Br)cn3c2NC2CCCC2)cc1O		8.8
Nc1cccc(-c2nc3ccc(Br)cn3c2NC2CCCC2)c1		10.1
COc1ccc2nc(-c3ccc(OC)c(O)c3)c(NC3CCCC3)n2c1		31.3
COc1ccc(-c2nc3ccccn3c2NC2CCCC2)cc1O		> 50
Brc1ccc2nc(-c3ccccc3)c(NC3CCCC3)n2c1		> 50
COc1ccc(-c2nc3ccc(I)cn3c2NC2CCCC2)cc1O		4.8
COc1cccc(-c2nc3ccc(Br)cn3c2NC2CCCC2)c1		> 50
COc1cc(-c2nc3ccc(Br)cn3c2NC2CCCC2)ccc1O		> 50
COc1ccc(-c2nc3ccc(-c4ccccc4)cn3c2NC2CCCC2)cc1O		> 50
COc1ccc(-c2nc3ccc(C#N)cn3c2NC2CCCC2)cc1O		> 50
COc1ccc(-c2nc3cccc(Br)n3c2NC2CCCC2)cc1O		> 50
